Data as given in patent US9526785B2, “Pharmaceuticals for oral delivery” (Enteris BioPharma, Inc., priority 2013, dated 2016).
Several values for one entry are separate records, joined by “and”; a condition that tells them apart may be missing. Identical values can stand only once. Entries after “also recorded” stand apart in the source; their conditions may differ. Like-named read-outs stand apart in the source and are kept apart here.

Experiment: Tigecycline plasma PK and % F after PO enteric-coated capsule in dogs
Type: in vivo, Beagle dogs
Settings: for bioavailability / AUC(0-t) / Cmax / Tmax / concentration at 0 min / concentration at 15 min / concentration at 30 min / concentration at 45 min: female, beagle, dog, plasma, po, 15 mg; for Tmax: read-out: Tmax (converted); for concentration at 0 min / concentration at 15 min / concentration at 30 min / concentration at 45 min: Tigecycline Plasma Concentration
Procedure: Adult beagle dogs weighing approximately 9 to 15 kg were used in the study. […] Room temperature was set to be maintained between approximately 20±5° C. Relative humidity was monitored but not controlled.
TEKLAD™ Certified Canine Diet was provided once daily in amounts (˜400 grams) appropriate for the size and age of the animals. Tap water was available ad libitum via automatic watering device or water bowls.
Oral dosing of enteric-coated capsules was accomplished by administering them to the back of the dog's mouth, followed by a chase of 5 mL water to ensure swallowing.
Water was provided ad libitum. […] Subsequently, each group of animals was dosed based on the protocol, i.e. either IV, or PO by capsule.
Minocycline (VWR international) was used as an internal standard. Sample processing/clean-up of plasma samples was carried out offline by protein precipitation with acidified acetonitrile using 0.5% trifluoroacetic acid (TFA).
The HPLC system consisted of Shimadzu SIL-HTc HPLC system equipped with dual Shimadzu LC-10ADvp isopumps, a Shimadzu CTO-10ASvp column temperature controller and a Shimadzu SPD-10Avp variable wavelength detector. […] Mobile phase A consisted of 23 mM phosphate buffer pH 2.5 with 4 mM 1-octanesulfonic acid, while mobile phase B consisting of 90% acetonitrile, 10% water, with 2 mM 1-octanesulfonic acid. […] The total runtime was 18 minutes per sample. The mobile phase flow rate was 1.2 mL/min. Detection was performed using the SPD-10Avp variable wavelength detector set at 350 nm, with a sensitivity of 0.001 aufs.
The samples were then centrifuged under refrigeration at 13 k rpm for 5 minutes. The supernatant was taken and the liquid removed to dryness under nitrogen in a turbovap. The dried extract was reconstituted in 60 μL of mobile phase A and the suspension was further centrifuged at 5 k rpm for 5 minutes to pellet any insoluble matter. The resulting supernatant was then injected onto the LC.
The unknown concentration in dog plasma samples was determined by interpolation of the peak area ratios of analyte:internal standard versus the ratio of their nominal concentrations into the regression line obtained from calibration standards spiked in pooled dog plasma. No regression weighting was used for the calculations. […] The calibration curve covered the range of 0.05 μg/mL to 5 μg/mL. […]
The capsules were enterically coated using a standard preclinical protocol to 10% weight gain. Two studies were conducted.

[1] = 15 min, PO 15 mg unformulated enteric-coated capsule, SC424, individual dogs
[2] = 30 min, PO 15 mg unformulated enteric-coated capsule, SC424, individual dogs
[3] = 45 min, PO 15 mg unformulated enteric-coated capsule, SC424, individual dogs

In the case of `CN(C)c1cc(NC(=O)CNC(C)(C)C)c(O)c2c1C[C@H]1C[C@H]3[C@H](N(C)C)C(O)=C(C(N)=O)C(=O)[C@@]3(O)C(O)=C1C2=O` [Tigecycline], the “Tigecycline Plasma Concentration” value [1] is reported as 0.00 ng/mL, the “Tigecycline Plasma Concentration” value [2] is reported as 0.00 ng/mL and the “Tigecycline Plasma Concentration” value [3] is reported as 0.00 ng/mL. The “Tigecycline Plasma Concentration” value (60 min, PO 15 mg unformulated enteric-coated capsule, SC424, individual dogs) was 0.00 ng/mL, the “Tigecycline Plasma Concentration” value (75 min, PO 15 mg unformulated enteric-coated capsule, SC424, individual dogs) was 0.00 ng/mL and the “Tigecycline Plasma Concentration” value (90 min, PO 15 mg unformulated enteric-coated capsule, SC424, individual dogs) was 0.00 ng/mL. The “Tigecycline Plasma Concentration” value (120 min, PO 15 mg unformulated enteric-coated capsule, SC424, individual dogs) was 0.00 ng/mL, the “Tigecycline Plasma Concentration” value (150 min, PO 15 mg unformulated enteric-coated capsule, SC424, individual dogs) was 0.00 ng/mL and the “% F” value (PO 15 mg enteric-coated capsule with 500 mg CA and 100 mg LLC, SC424, calculated from IV data of SC427, individual dogs) was 13.6% and 3.9% and 30.3% and 17.0% and 2.0% and 8.3% and 12.0% and 10.6%. The plasma exposure (PO 15 mg unformulated (microcrystalline cellulose filler) enteric-coated capsule (SC424)) was “No tigecycline exposure was observed; also recorded: did not result in observable plasma exposure”, the “% F” value (PO 30 mg enteric-coated capsule with 500 mg CA and 100 mg LLC, SC430, calculated from IV PK data of SC431, individual dogs) was 7.9% and 23.3% and 12.8% and 2.6% and the plasma exposure (PO 30 mg unformulated (microcrystalline cellulose filler) enteric-coated capsule (SC430)) was “No tigecycline exposure was observed; also recorded: did not result in observable plasma exposure”. The “% F” value (PO 45 mg enteric-coated capsule with 500 mg CA and 100 mg LLC, SC430, calculated from IV PK data of SC431, individual dogs) was 18.4% and 6.3% and 6.4% and 14.8% and 31.8%, the bioavailability (15 mg Formulated (500 mg CA, 100 mg LLC) enteric coated capsule, Study 1 (SC424), mean (% CV), read-out: % F) was 12.2% and the AUC(0-t) (15 mg Formulated (500 mg CA, 100 mg LLC) enteric coated capsule, Study 1 (SC424), mean (% CV), read-out: AUC(0-t)) was 133 ng·h/mL. The Cmax (15 mg Formulated (500 mg CA, 100 mg LLC) enteric coated capsule, Study 1 (SC424), mean (% CV), read-out: Cmax) was 75.5 ng/mL, the Tmax (15 mg Formulated (500 mg CA, 100 mg LLC) enteric coated capsule, Study 1 (SC424), mean (% CV)) was 1.85 h and the bioavailability (15 mg Unformulated enteric coated capsule, Study 1 (SC424), read-out: % F) was 0%. It also gave an AUC(0-t) (PO 15 mg ([…]) enteric-coated capsule with 500 mg CA and 100 mg LLC (SC424), read-out: AUC(0-t), mean) of 133 ng·h/mL, a Cmax (PO 15 mg ([…]) enteric-coated capsule with 500 mg CA and 100 mg LLC (SC424), read-out: Cmax, mean) of 75.5 ng/mL and a bioavailability (PO 15 mg ([…]) enteric-coated capsule with 500 mg CA and 100 mg LLC (SC424), read-out: absolute % F, mean) of 12.2%. It also gave a bioavailability (PO 15 mg enteric-coated capsule with 500 mg CA and 100 mg LLC (SC424), read-out: % F, range of individual dogs) of 2 to 30%, an AUC(0-t) (PO 15 mg enteric-coated capsule with 500 mg CA and 100 mg LLC ([…]), SC424, mean, read-out: AUC(0-t)) of 133 ng·h/mL and a Cmax (PO 15 mg enteric-coated capsule with 500 mg CA and 100 mg LLC ([…]), SC424, mean, read-out: Cmax) of 75.5 ng/mL. It also gave a Tmax (PO 15 mg enteric-coated capsule with 500 mg CA and 100 mg LLC ([…]), SC424, mean) of 1.85 h, a bioavailability (PO 15 mg enteric-coated capsule with 500 mg CA and 100 mg LLC, SC424, calculated from IV data of SC427, mean, read-out: % F) of 12.2% and a bioavailability (PO 15 mg unformulated enteric-coated capsule ([…]), SC424, individual dogs, read-out: % F) of 0%. For the same molecule, the bioavailability (PO 15 mg unformulated enteric-coated capsule ([…]), SC424, mean, read-out: % F) was 0%, the bioavailability (Study 1 (SC424), 15 mg Formulated enteric coated capsule (500 mg citric acid, 100 mg LLC), oral, dogs, N=8, mean (% CV), based on that study's IV arm, read-out: % F) was 12.2% and the Tmax (Study 1 (SC424), 15 mg Formulated enteric coated capsule (500 mg citric acid, 100 mg LLC), oral, dogs, N=8, mean (% CV)) was 1.85 h. The AUC(0-t) (Study 1 (SC424), 15 mg Formulated enteric coated capsule (500 mg citric acid, 100 mg LLC), oral, dogs, N=8, mean (% CV), sampling 4 h, read-out: AUC(0-t)) was 133 ng·h/mL, the Cmax (Study 1 (SC424), 15 mg Formulated enteric coated capsule (500 mg citric acid, 100 mg LLC), oral, dogs, N=8, mean (% CV), sampling 4 h, read-out: Cmax) was 75.5 ng/mL and the bioavailability (Study 1 (SC424), 15 mg Unformulated enteric coated capsule (microcrystalline cellulose filler), oral, dogs, N=8, based on that study's IV arm, read-out: % F) was 0%. It also gave a concentration at 0 min (PO 15 mg enteric-coated capsule with 500 mg CA and 100 mg LLC, SC424, individual dogs) of 0 ng/mL, a concentration at 0 min (PO 15 mg enteric-coated capsule with 500 mg CA and 100 mg LLC, SC424, mean) of 0 ng/mL and a concentration at 15 min (15 min, PO 15 mg enteric-coated capsule with 500 mg CA and 100 mg LLC, SC424, individual dogs) of 0 ng/mL. For the same molecule, the concentration at 15 min (15 min, PO 15 mg enteric-coated capsule with 500 mg CA and 100 mg LLC, SC424, mean) was 0 ng/mL, the concentration at 15 min [1] was 0 ng/mL and the concentration at 15 min (15 min, PO 15 mg unformulated enteric-coated capsule, SC424, mean) was 0 ng/mL. The concentration at 30 min (30 min, PO 15 mg enteric-coated capsule with 500 mg CA and 100 mg LLC, SC424, individual dogs) was 0 ng/mL, the concentration at 30 min (30 min, PO 15 mg enteric-coated capsule with 500 mg CA and 100 mg LLC, SC424, mean) was 0 ng/mL and the concentration at 30 min [2] was 0 ng/mL. The concentration at 30 min (30 min, PO 15 mg unformulated enteric-coated capsule, SC424, mean) was 0 ng/mL, the concentration at 45 min (45 min, PO 15 mg enteric-coated capsule with 500 mg CA and 100 mg LLC, SC424, mean) was 8.45 ng/mL and the concentration at 45 min [3] was 0 ng/mL. The concentration at 45 min (45 min, PO 15 mg unformulated enteric-coated capsule, SC424, mean) was 0 ng/mL.
